# Assays:
# [1] = tested on: neuroblastoma lines; assay: nuclear chemotherapy with 77BrdC on neuroblastoma lines; format: cell-based; conditions: ten neuroblastoma lines tested; H4U blockage
# Experimental: An investigation of a method called “nuclear chemotherapy” was done many years previously at Sloan-Kettering Research Institute in New York, by Dr. Chia-Gee Wang and Dr. Lawrence Helson. The research was done using ^77BrdC, where ^77Br (half-life at 57 hours) would undergo a K-capture and deliver 10^6 or more Gy at a small distance. The […] of BrdC to BrdU can be blocked by the non-toxic H4U and therefore excluding BrdC from being incorporated into the DNA pool. Certain transformed cells, on the other hand, would make use of a more primitive kinase to bypass the H4U blockage, and incorporate BrdC to form BrdU. The ^77Br was made by adding an α particle to ^75As in a facility in the U.K. ^77Br was obtained in liquid solution, and ^77BrdC was made. […] The cells simply stopped mitosis while continuing most of the cellular functions. The Auger electrons from the ^77BrdU delivered such a high dose of the DNA duplex that no cellular repair was possible.
# [2] = tested on: cells; conditions: cited from earlier work
# [3] = tested on: mice; conditions: cited from earlier work
molecule,measurement,setting,value
Nc1nc(=O)n([C@H]2C[C@H](O)[C@@H](CO)O2)cc1[77Br] [^77BrdC],sensitivity of neuroblastoma lines,[1],two of the ten lines were sensitive
7-DTPA-Paclitaxel,retention of paclitaxel potency in the cells,[2],retain much of the paclitaxel potency
O=C([O-])CN(CCN(CC(=O)[O-])CC(=O)O)CCN(CC(=O)[O-])CC(=O)O.[Gd+3] [Gd-DTPA],LD50 in mice,[3],~10 mmol/kg

# Reference: patent publication US7981928B2, “Chemotherapy method using x-rays” (Nanodynamics, Inc., priority 2002, dated 2011)
